The values that follow are results of earlier work, collected in patent US20080226715A1, “THERAPEUTIC COMPOSITIONS AND METHODS” (priority 2007, published 2008).

For data set [1] the following is noted: in vivo.
The conditions of data set [2]: after oral dosing; normal subjects.

As usually defined, the bioavailability is the share of a dose that reaches the circulation, judged against a reference dose that is usually intravenous. Take `O=C(O)CCc1nc(-c2ccccc2)c(-c2ccccc2)o1` [Oxaprozin]: in data set [1], the bioavailability is recorded as 95% and the pharmacokinetics half-life was 42 to 50 h. For the molecule `CC(=O)Nc1ccc(O)cc1` [acetaminophen], the “time of peak plasma concentrations” value in data set [2] is reported as “about 1 hour”. Consider `CC(=O)Oc1ccccc1C(=O)O` [aspirin], for which, in data set [2], the “time of peak plasma concentrations” value is listed as “about 1 hour”.
